Laboratory results published in paper PMC9737772, “Synthesis and Anti-Inflammatory Activity of 1-Methylhydantoin Cinnamoyl Imides” (Molecules, 2022).
Entries after “also recorded” stand apart in the source; their conditions may differ.

How the values were obtained:
[1] = Cytotoxicity determination by CCK-8; format: cell-based; conditions: mouse, RAW264.7 macrophage cells, RAW264.7 cells
Procedure: (§1) RAW264.7 mouse macrophages were purchased from Zhongqiao Xinzhou and cultured in DMEM supplemented with 10% fetal bovine serum (FBS) and 1% penicillin/streptomycin in a 37 °C, 5% CO2 incubator. The cells were passaged every two days to maintain the monolayer cell state.
The CCK-8 kit was used to determine the cytotoxicity of the target compounds (1–5) to RAW264.7 cells. The well-growing cells were subcultured in a 96-well plate. After the cells adhered to the wall, the experimental group was added with a medium containing different concentrations of compounds to make the final concentration reach 5, 10, 20, 40, 80, 160 and 320 μmoL/L. The control group was added with a medium without compound, and a blank group without cells or compound was set at the same time. After culturing in a constant temperature incubator for a period, CCK-8 solution was added to produce yellow formazan product. The OD value was measured by the microplate reader at the detection wavelength of 450 nm, and the cell survival rate was calculated. The cell survival rate formula is as follows:(1) Cell Survival Rate %=ODe−ODb/ODc−ODb×100% where ODe was the OD value of the experimental group, ODb was the OD value of the blank group, and ODc was the OD value of the control group.

[2] = tested on: IL-1β secretion in RAW264.7 cells induced by LPS; assay: IL-1β content in supernatant of LPS-induced RAW264.7 cells (ELISA); format: cell-based, mouse
Description: Interleukin-1β (IL-1β) has strong proinflammatory activity and can induce the production of a variety of proinflammatory mediators, such as cytokines and chemokines. In this work, the ELISA method was used to determine the IL-1β content in the supernatant of RAW264.7 cells stimulated by LPS to evaluate the effects of five compounds on IL-1β secretion.
as §1
The RAW264.7 cells in the logarithmic growth phase were seeded in a 24-well plate and placed in a 37 °C, 5% CO2 constant temperature incubator for culture. After 24 h, the culture medium was discarded. The blank group was added with 10% FBS DMEM 1 mL. The group was added with a medium containing 1 ug/mL LPS, and the experimental group was added with LPS and different concentrations of the target compound to make the final volume 1 mL. After 24 h of culture, the cell supernatant was taken and stored in a refrigerator at −20 °C for later use. The Griess kit was used to determine the concentration of NO in the supernatant, and a double antibody sandwich ELISA kit was used to detect TNF-α and IL-1β.

[3] = target: T1, ovine cyclooxygenase-2 (COX-2); assay: In vitro COX inhibition assay (enzyme immunoassay kit), COX-2; format: biochemical; conditions: ovine COX-2, enzyme immunoassay kit
T1 construct: purchased Cayman Chemical 560131
Procedure: The inhibition ability of 1-methylhydantoin cinnamic imides to ovine cyclooxygenase-1 (COX-1) and cyclooxygenase-2 (COX-2) was determined using an enzyme immunoassay kit. […] The Cell Counting Kit-8 (CCK-8) method was used to detect the cytotoxicity of the five target compounds (1–5) on lipopolysaccharide (LPS)-induced RAW264.7 cells. When the concentrations of compounds 1, 3 and 5 are lower than 20 μM, and when the concentrations of compounds 2 and 4 are lower than 80 μM, the survival rate of RAW264.7 cells is more than 95%, which has no obvious damage to cell survival and can be used for subsequent in vitro anti-inflammatory activity experiments to provide the basis.
The inhibition ability of ovine COX-1 and COX-2 was determined using an enzyme immunoassay kit (560131, Cayman Chemical, Ann Arbor, MI, USA) following the manufacturer’s instructions.

[4] = 80 μM, LPS, 24 h, RAW264.7, vs model group
[5] = LPS-stimulated RAW264.7, concentration not stated

T1 sequence (P35354 18-604): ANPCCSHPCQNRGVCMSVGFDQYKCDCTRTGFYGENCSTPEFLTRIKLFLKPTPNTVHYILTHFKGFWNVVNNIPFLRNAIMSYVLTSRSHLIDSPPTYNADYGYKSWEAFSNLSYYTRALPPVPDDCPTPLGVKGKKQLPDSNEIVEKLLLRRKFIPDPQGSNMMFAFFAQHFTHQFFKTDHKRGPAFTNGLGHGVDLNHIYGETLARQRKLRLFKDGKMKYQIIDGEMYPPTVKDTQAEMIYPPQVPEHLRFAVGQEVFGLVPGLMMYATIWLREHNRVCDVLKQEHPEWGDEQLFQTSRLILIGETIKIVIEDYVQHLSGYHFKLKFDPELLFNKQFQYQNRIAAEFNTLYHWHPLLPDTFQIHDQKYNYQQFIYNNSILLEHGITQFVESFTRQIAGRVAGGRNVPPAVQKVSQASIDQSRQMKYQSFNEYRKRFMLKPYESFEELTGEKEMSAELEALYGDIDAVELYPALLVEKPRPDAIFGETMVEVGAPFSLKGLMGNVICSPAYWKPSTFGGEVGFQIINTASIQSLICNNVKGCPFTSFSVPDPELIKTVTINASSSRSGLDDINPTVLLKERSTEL

| SMILES | CC50 [1] | inhibition of IL-1β secretion ([2]; 20 μM, LPS, 24 h, RAW264.7, vs model group) | inhibition of IL-1β secretion [2, 4] | inhibition of IL-1β secretion [2, 5] | melting point | IC50 [3] |
| --- | --- | --- | --- | --- | --- | --- |
| CN1CC(=O)N(C(=O)/C=C/c2ccco2)C1=O [Compound 2, (E)-3-(3-(furan-2-yl)acryloyl)-1-methylimidazolidine-2,4-dione] | 329 µM | no obvious inhibitory effect on IL-1β | significant inhibitory effect on the secretion of IL-1β | reduce the secretion of TNF-α and IL-1β | 128.9 to 129.8 °C | 204 ± 10 µM |
| CC(=O)Oc1ccc(/C=C/C(=O)N2C(=O)CN(C)C2=O)cc1 [Compound 4, (E)-4-(3-(3-methyl-2,5-dioxoimidazolidin-1-yl)-3-oxoprop-1-en-1-yl)phenyl acetate] | 302 µM | – | significant inhibitory effect on the secretion of IL-1β | reduce the secretion of TNF-α and IL-1β; also recorded: significantly inhibited the secretion of inflammatory factors TNF-α and IL-1β | 148.9 to 149.6 °C | 126 ± 12 µM |
